In patent US5114464A, “4-quinoxalinyloxyphenoxyalkylinitrile herbicides” (Uniroyal Chemical Company, Inc., priority 1990, dated 1992):

How the values were obtained:
velvet leaf [1] = experiment: Preemergence control of velvet leaf (Table I); assay type: in vivo, Abutilon theoohrasti Medic.; settings: 11.2 kg/ha, two weeks after treatment
Experimental: (§1) To illustrate the effectiveness of the Compounds 1 and 2 of this invention as preemergence herbicides, 300 mg of each compound were dissolved in 10 ml acetone to which 30 mg of an emulsifying agent, ethoxylated sorbitan monolaurate, were added. The solution was diluted to 100 ml with distilled water. Ten milliliters of the 3000 ppm solution were diluted to 250 ppm with distilled water. The chemical was applied at the rate of 10 lb/A (11.2 kg/ha) by drenching 46 ml of the 250 ppm solution on the surface of soil in 41/2inch (11.25 cm) plastic pots wherein seeds of the following weeds had been planted: velvet leaf (Abutilon theoohrasti Medic.) (VL), prickly sida (sida soinosa L.) (PS), tall morningglory (Ioomea purourea L. Roth) (TM), switchgrass (Panicum viroatum L.) (SG), barnyard grass (Echinolchloa crus-oalli (L.) Beauv.) (BG), and green foxtail (Setaria viridis) (L.) Beauv.) (GF). The percent control of the weeds compared to untreated checks was determined two weeks after treatment.

prickly sida [2] = experiment: Preemergence control of prickly sida (Table I); assay type: in vivo, sida soinosa L.; settings: 11.2 kg/ha, two weeks after treatment
Experimental: as §1

tall morningglory [3] = experiment: Preemergence control of tall morningglory (Table I); assay type: in vivo, Ioomea purourea L. Roth; settings: 11.2 kg/ha, two weeks after treatment
Experimental: as §1

barnyard grass [4] = experiment: Preemergence control of barnyard grass (Table I); assay type: in vivo, Echinolchloa crus-oalli (L.) Beauv.; settings: 11.2 kg/ha, two weeks after treatment
Experimental: as §1

switchgrass [5] = experiment: Preemergence control of switchgrass (Table I); assay type: in vivo, Panicum viroatum L.; settings: 11.2 kg/ha, two weeks after treatment
Experimental: as §1

green foxtail [6] = experiment: Preemergence control of green foxtail (Table I); assay type: in vivo, Setaria viridis (L.) Beauv.; settings: 11.2 kg/ha, two weeks after treatment
Experimental: as §1

velvet leaf [7] = experiment: Postemergence control of velvet leaf (Table II); assay type: in vivo, Abutilon theoohrasti Medic.; settings: 3000 ppm, two weeks after treatment
Experimental: as §1
(§2) To test the effectiveness of Compounds 1 and 2 of this invention as postemergence herbicides, a 3000 ppm solution of each compound (produced in accordance with the process described under Example 3) was atomized employing a DEVILBISS [trademark] sprayer, wetting the foliage to the drip point. […] The percent weed control was evaluated two weeks after treatment.

prickly sida [8] = experiment: Postemergence control of prickly sida (Table II); assay type: in vivo, sida soinosa L.; settings: 3000 ppm, two weeks after treatment
Experimental: as §1, §2

tall morningglory [9] = experiment: Postemergence control of tall morningglory (Table II); assay type: in vivo, Ioomea purourea L. Roth; settings: 3000 ppm, two weeks after treatment
Experimental: as §1, §2

barnyard grass [10] = experiment: Postemergence control of barnyard grass (Table II); assay type: in vivo, Echinolchloa crus-oalli (L.) Beauv.; settings: 3000 ppm, two weeks after treatment
Experimental: as §1, §2

switchgrass [11] = experiment: Postemergence control of switchgrass (Table II); assay type: in vivo, Panicum viroatum L.; settings: 3000 ppm, two weeks after treatment
Experimental: as §1, §2

green foxtail [12] = experiment: Postemergence control of green foxtail (Table II); assay type: in vivo, Setaria viridis (L.) Beauv.; settings: 3000 ppm, two weeks after treatment
Experimental: as §1, §2

switchgrass [13] = experiment: Postemergence selectivity, greenhouse: switchgrass control (Table III); assay type: in vivo, Panicum viroatum L.; settings: 250 ppm, treated May 26, rated Jun. 12
Experimental: as §1
(§3) To illustrate the effectiveness of Compound 1 of this invention as a corn-safe selective postemergence herbicide, the 3000 ppm solution prepared as described in Example 3 was diluted with distilled water to 250 ppm and applied to foliage as described in Example 3. The commercial product Hoelon 3EC® (Hoechst) was included as a standard. […] The percent weed control and crop injury was determined on Jun. […]

barnyard grass [14] = experiment: Postemergence selectivity, greenhouse: barnyard grass control (Table III); assay type: in vivo, Echinolchloa crus-oalli (L.) Beauv.; settings: 250 ppm, treated May 26, rated Jun. 12
Experimental: as §1, §3

green foxtail [15] = experiment: Postemergence selectivity, greenhouse: green foxtail control (Table III); assay type: in vivo, Setaria viridis (L.) Beauv.; settings: 250 ppm, treated May 26, rated Jun. 12
Experimental: as §1, §3

corn = experiment: Postemergence selectivity, greenhouse: corn injury (Table III); assay type: in vivo; settings: 250 ppm
Experimental: as §1, §3

soybean = experiment: Postemergence selectivity, greenhouse: soybean injury (Table III); assay type: in vivo; settings: 250 ppm, treated May 26, rated Jun. 12
Experimental: as §1, §3

cotton = experiment: Postemergence selectivity, greenhouse: cotton injury (Table III); assay type: in vivo; settings: 250 ppm, treated May 26, rated Jun. 12
Experimental: as §1, §3

Giant foxtail = experiment: Postemergence selectivity, field test: Giant foxtail control (Table IV); assay type: in vivo; settings: 33 days after treatment
Experimental: (§4) To further illustrate the effectiveness of Compound 1 of this invention as a corn-safe selective postemergence herbicide, field tests were run in which five corn hybrids (designated C9979, C6114, C8004 and C1914 by the Independent Professional Seedsmans Association, and Pioneer 3295) along with two grass weeds (Giant foxtail, "GF"; and Barnyard grass, "BG") were planted in an Illinois field on April 24. The crops were treated with various amounts of Compound 1 in early Jun., and the amount of crop control was evaluated 33 days after treatment compared to an untreated control. The active ingredient was formulated as follows: […]
(§5) That produces a formulation containing 10% active ingredient by weight. The required amount of formulation to produce the indicated rate per acre is added to water, mixed with one quart of an adjuvant containing 83% mineral oil and 17% emulsifiers, then brought up to a total spray volume of 20 gallons per acre with water.

Barnyard grass [16] = experiment: Postemergence selectivity, field test: Barnyard grass control (Table IV); assay type: in vivo; settings: 33 days after treatment
Experimental: as §4, §5

corn hybrids = experiment: Postemergence selectivity, field test: corn hybrids (Table IV); assay type: in vivo; settings: for Percent corn crop control (injury): 33 days
Experimental: as §4, §5

weeds [17] = experiment: Preemergence control, summary statement; assay type: in vivo; settings: 11.2 kg/ha
Experimental: as §1

weeds [18] = experiment: Postemergence control, summary statement; assay type: in vivo; settings: 3000 ppm
Experimental: as §1, §2

grass weeds [19] = experiment: Postemergence selectivity greenhouse (Example 5), summary for grass weeds; assay type: in vivo; settings: 250 ppm
Experimental: as §1, §3

grass weeds [20] = experiment: Postemergence selectivity field test (Example 6), summary for grass weeds; assay type: in vivo; settings: 0.125 to 0.50 lb/a
Experimental: as §4, §5

N#CCOc1ccc(Oc2cnc3cc(Cl)ccc3n2)cc1 [Compound 1, 2-[4-(6-chloro-2-quinoxalinyloxy)phenoxy]acetonitrile]
% Control VL (velvet leaf [1]): 0%
% Control PS (prickly sida [2]): 0%
% Control TM (tall morningglory [3]): 0%
% Control BG (barnyard grass [4]): 100%
% Control SG (switchgrass [5]): 50%
% Control GF (green foxtail [6]): 90%
% Control VL (velvet leaf [7]): 0%
% Control PS (prickly sida [8]): 0%
% Control TM (tall morningglory [9]): 0%
% Control BG (barnyard grass [10]): 100%
% Control SG (switchgrass [11]): 100%
% Control GF (green foxtail [12]): 9%
Percent weed control SG (switchgrass [13]): 100%
Percent Weed Control BG (barnyard grass [14]): 100%
Percent Weed Control GF (green foxtail [15]): 90%
corn safety (corn): substantially innocuous to corn
Percent crop injury CORN (corn; treated May 26, rated Jun. 12): 0%
Percent crop injury SOYBEAN (soybean): 0%
Percent crop injury COTTON (cotton): 0%
Percent Weed Control GF (Giant foxtail; 0.125 lb/a): 99.3%
Percent Weed Control GF (Giant foxtail; 0.25 lb/a): 100%
Percent Weed Control GF (Giant foxtail; 0.50 lb/a): 100%
Percent Weed Control BG (Barnyard grass [16]; 0.125 lb/a): 30.0%
Percent Weed Control BG (Barnyard grass [16]; 0.25 lb/a): 43.3%
Percent Weed Control BG (Barnyard grass [16]; 0.50 lb/a): 90.0%
corn safety (corn hybrids; 0.125 to 0.50 lb/a): substantially innocuous to corn
Percent corn crop control (injury) (corn hybrids; corn hybrid C1914, 0.125 lb/a): 0%
Percent corn crop control (injury) (corn hybrids; corn hybrid C1914, 0.25 lb/a): 0%
Percent corn crop control (injury) (corn hybrids; corn hybrid C1914, 0.50 lb/a): 0%
Percent corn crop control (injury) (corn hybrids; corn hybrid C6114, 0.125 lb/a): 0%
Percent corn crop control (injury) (corn hybrids; corn hybrid C6114, 0.25 lb/a): 0%
Percent corn crop control (injury) (corn hybrids; corn hybrid C6114, 0.50 lb/a): 0%
Percent corn crop control (injury) (corn hybrids; corn hybrid C8004, 0.125 lb/a): 0%
Percent corn crop control (injury) (corn hybrids; corn hybrid C8004, 0.25 lb/a): 0%
Percent corn crop control (injury) (corn hybrids; corn hybrid C8004, 0.50 lb/a): 0%
Percent corn crop control (injury) (corn hybrids; corn hybrid C9979, 0.125 lb/a): 0%
Percent corn crop control (injury) (corn hybrids; corn hybrid C9979, 0.25 lb/a): 0%
Percent corn crop control (injury) (corn hybrids; corn hybrid C9979, 0.50 lb/a): 0%
Percent corn crop control (injury) (corn hybrids; corn hybrid Pioneer 3295, 0.125 lb/a): 0%
Percent corn crop control (injury) (corn hybrids; corn hybrid Pioneer 3295, 0.25 lb/a): 0%
Percent corn crop control (injury) (corn hybrids; corn hybrid Pioneer 3295, 0.50 lb/a): 0%
herbicidal efficacy (weeds [17]): good to excellent herbicidal efficacy
postemergent herbicidal control (weeds [18]): desirable postemergent herbicidal control
control of several grass weeds (grass weeds [19]): good control of several grass weeds
control of several grass weeds (grass weeds [20]): good control of several grass weeds
